{"source": "patent US20230157282A1", "about": "“Synergistic Preservative/Personal Care Composition With A Polyglycerol Ester” (ARCH UK BIOCIDES LTD, priority 2020, published 2023)", "tested_on": "Pseudomonas aeruginosa ATCC 15442", "assay": "Suspension test: log reduction of Pseudomonas aeruginosa after a specified contact time", "format": "cell-based", "procedure": "The target organism Pseudomonas aeruginosa ATCC 15442 was taken from freezer stocks and grown for 24 hours on tryptone soy agar (TSA) at 37° C. A second subculture was produced from the first and grown with the same conditions. A test suspension was then created by adding loopfuls of organism to tryptone buffered saline and adjusting the cell concentration to 1×10^8 and 5×10^8 CFU/ml using an internally established calibration curve spectrophotometer at a wavelength of 600 nm. To establish the precise CFU/ml a 1 ml aliquot was then taken from the test suspension and serially diluted down to 10^−6 and 10^−7, 1 ml of each dilution was then plated in duplicate using the pour plate method on to TSA. The plates were then incubated for 24 hours at 37° C. and enumerated.\nFor each Active Ingredient tested a series of 3 samples were prepared in sterile distilled water;\nTest sample 1—Active Ingredient alone (to measure basic efficacy of the Active Ingredient)\nTest sample 2—Active Ingredient in combination with polyglyceryl-10 caprylate/caprate (to measure the efficacy of the combination of active ingredient and polyglycerol ester)\nControl—A control sample of polyglyceryl-10 caprylate/caprate was prepared in deionized water to measure the efficacy of polyglycerol ester alone.\nEach test sample was prepared at a concentration 10% higher than that of the target concentration to account for the dilution effect from the addition of the test organism suspension during the test procedure.\nA test mixture was prepared by adding a 0.1 ml aliquot of test organism suspension to a tube followed by 0.9 ml of test sample (prepared as above). The combination was then mixed and a timer started immediately.\nUpon achieving the specified contact time the test mixture was deactivated by adding a 0.1 ml aliquot of the test mixture to 0.9 ml of neutralizing broth and the whole solution mixed. The solution was left for 5 minutes to ensure the action of the active ingredient was effectively neutralized.\nTo quantify the surviving number of organisms in the neutralized test mixture, 4×0.025 ml aliquots were taken and spot plated onto the surface of dried TSA. The plates were then incubated for 24 hours at 37° C.\nFor spot plating, colonies from the incubated plates were enumerated using the lower count limit of <1 and the upper count limit of >150. […] For the upper limit, if 156 colonies were counted on a plate, >150 would be recorded and 150 would be used for the calculation.\n[formula] • N0 is the number of cells per ml in test mixture at the beginning of contact time. It is one-tenth of the weighted mean of N due to the tenfold dilution by the addition of the test product.\nEnumeration and Calculation of T (Test Mixture) • First, the mean average of cfu per 0.025 ml spots was established using the below calculation;\nLog Reduction Calculations (N0− T) • Before calculating the log reduction both N0 and T were converted into a logarithm base 10 value. For example;\nTo calculate the final log reduction the following calculation was used;\nThe test procedure outlined above was used to test for synergy between polyglyceryl-10 caprylate/caprate (PG10CC) and the various active ingredients listed in Table 1. Varying concentrations were prepared and were tested at the times listed in Table 1 for the presence of Pseudomonas aeruginosa.", "data": [{"compound": "O=c1[nH]sc2ccccc12", "values": [{"measurement": "Log Reduction", "setting": "Benzisothiazoline 100 ppm, contact time 48 hours", "value": 3.84}]}, {"compound": "O=C(O)c1ccccc1", "note": "[Benzoic acid]", "values": [{"measurement": "Log Reduction", "setting": "Benzoic acid 2000 ppm, contact time 2 hours", "value": "<2.85"}]}, {"compound": "O=C(O)CO", "note": "[Glycolic acid]", "values": [{"measurement": "Log Reduction", "setting": "Glycolic acid 1000 ppm, contact time 30 minutes", "value": 2.85}]}, {"compound": "CC(O)C(=O)O", "note": "(stereo not drawn) [Lactic acid]", "values": [{"measurement": "Log Reduction", "setting": "Lactic acid 2000 ppm, contact time 3 hours", "value": 4.03}]}, {"compound": "[H]/N=C(\\N/C(=N/[H])NCCCCCCNC(=N)NC(=N)Nc1ccc(Cl)cc1)Nc1ccc(Cl)cc1", "note": "[chlorohexidine]", "values": [{"measurement": "Log Reduction", "setting": "chlorohexidine 64 ppm, contact time 5 minutes", "value": 3.44}]}, {"compound": "Zinc pyrithione", "values": [{"measurement": "Log Reduction", "setting": "Zinc pyrithione 400 ppm, contact time 7 days", "value": 2.88}]}]}
